# Measured values published in US4822892A, “N-heterocyclic platinum complexes” (Chugai Seiyaku Kabushiki Kaisha, priority 1984, dated 1989).
# Experiments:
# Colon 26 carcinoma [1] = test: In vivo antitumor activity against Colon 26 carcinoma, single i.p. administration (Experiment 1); design: species or system CDF1/Crj strain male mouse; conditions: tumor weighed 10 days after administration
# Source text: A small piece of Colon 26 tumor (1-2 mm^3) was subcutaneously implanted in a lateral region of abdomen of a CDF1 /Crj strain male mouse (6 weeks old). Four days after the implantation, mice with the almost same size of tumor were divided into groups of 5-6 members each, and each mouse was intraperitoneally administered the test compound. Ten days after the administration, each of the mice was sacrificed, and the tumor was weighed to calculate the growth inhibitory ratio (GIR) by the following equation: [formula] wherein C and T represent the mean weights of tumor of the control group and the treated group, respectively.
# Cisplatin (CDDP) which is a known compound was used as a comparison.
# Colon 26 carcinoma [2] = test: In vivo antitumor activity against Colon 26 carcinoma, i.p. on days 4, 6 and 8 (Experiment 2); design: species or system CDF1/Crj strain male mouse; conditions: 40 mg/kg i.p. on day 4, 6 and 8 after implantation; tumor weighed day 14
# Protocol: A small piece of Colon 26 tumor (1-2 mm^3) was subcutaneously implanted in a lateral region of abdomen of a CDF1 /Crj strain male mouse (7 weeks old). Four days after the implantation, mice with the almost same size of tumor were divided into groups of 5-6 members each, and each mouse was intraperitoneally administered the test compound on day 4, 6, and 8 after implantation in a dose of 40 mg/kg one day. Fourteen days after the implantation, each mouse was sacrificed, and the tumor thereof was weighed to calculate the GIR (%) by the following equation. [formula] where C and T represent the mean weights of tumor of the control group and the group administered the test compound, respectively.
# [3] = Test on side-effects: body weight and BUN (Experiment 4); type: in vivo, BDF1/Crj strain male mice
# Source text: BDF1 /Crj strain male mice (6 weeks old) were intraperitoneally administered the test compound, and 1, 3 and 5 days after the administration, 3 mice were saceificed to determine the body weight and the level of urea nitrogen in blood (abbreviated as BUN).
# plasma proteins = test: In vitro binding to plasma proteins (Experiment 3); type: in vitro ADME, SD strain rat; conditions: 37° C., 5 μg/ml of Pt, rat plasma
# Protocol: A solution of the test compound was added to plasma obtained from SD strain rat at a ratio of 1:19 by volume which corresponded to 5 μg/ml of Pt. The mixture was incubated at 37° C. under dark. At a predetermined time, the mixture was sampled, and filtered with a molecular sieve membrane (manufactured by Amico Centriflow PMS) under centrifugation. The Pt content in the filtrate unbound Pt was assayed by an atomic absorption spectrophotometry.
# [4] = cited from earlier work
# [5] = 60 mg/kg i.p., 1 day after administration
# [6] = 60 mg/kg i.p., 3 days after administration
# [7] = 60 mg/kg i.p., 5 days after administration
# [8] = 12 mg/kg i.p., 1 day after administration
# [9] = 12 mg/kg i.p., 3 days after administration
# [10] = 12 mg/kg i.p., 5 days after administration
molecule,measurement,setting,value
"(S)-1,1-cyclobutanedicarboxylate(2-aminomethylpyrrolidine)platinum(II) [Compound 2]",GIR (growth inhibitory ratio),Colon 26 carcinoma [1]; 40 mg/kg i.p. single,73%
same,GIR (growth inhibitory ratio),Colon 26 carcinoma [1]; 60 mg/kg i.p. single,88%
same,GIR (growth inhibitory ratio),Colon 26 carcinoma [1]; 80 mg/kg i.p. single,94%
same,GIR (growth inhibitory ratio),Colon 26 carcinoma [1]; 120 mg/kg i.p. single,98%
same,GIR (growth inhibitory ratio),Colon 26 carcinoma [1]; 160 mg/kg i.p. single,died
same,CIR,Colon 26 carcinoma [2],99%
same,"BUN (urea nitrogen in blood, mean ± SD)",[3]; [5],20.0 ± 2.6 mg/dL
same,Body weight (mean ± SD),[3]; [5],23.1 ± 1.4 g
same,"BUN (urea nitrogen in blood, mean ± SD)",[3]; [6],17.7 ± 3.1 mg/dL
same,Body weight (mean ± SD),[3]; [6],19.9 ± 1.6 g
same,"BUN (urea nitrogen in blood, mean ± SD)",[3]; [7],15.4 ± 5.5 mg/dL
same,Body weight (mean ± SD),[3]; [7],17.9 ± 1.1 g
"(R)-1,1-cyclobutanedicarboxylate(2-aminomethylpyrrolidine)platinum(II) [Compound 3]",GIR (growth inhibitory ratio),Colon 26 carcinoma [1]; 40 mg/kg i.p. single,70%
same,GIR (growth inhibitory ratio),Colon 26 carcinoma [1]; 60 mg/kg i.p. single,85%
same,GIR (growth inhibitory ratio),Colon 26 carcinoma [1]; 80 mg/kg i.p. single,90%
same,GIR (growth inhibitory ratio),Colon 26 carcinoma [1]; 120 mg/kg i.p. single,95%
same,GIR (growth inhibitory ratio),Colon 26 carcinoma [1]; 160 mg/kg i.p. single,died
same,CIR,Colon 26 carcinoma [2],95%
same,"BUN (urea nitrogen in blood, mean ± SD)",[3]; [5],18.3 ± 3.1 mg/dL
same,Body weight (mean ± SD),[3]; [5],23.4 ± 1.5 g
same,"BUN (urea nitrogen in blood, mean ± SD)",[3]; [6],13.8 ± 1.8 mg/dL
same,Body weight (mean ± SD),[3]; [6],20.1 ± 1.2 g
same,"BUN (urea nitrogen in blood, mean ± SD)",[3]; [7],13.8 ± 7.6 mg/dL
same,Body weight (mean ± SD),[3]; [7],17.5 ± 0.7 g
cis-dichloro-trans-dihydroxy(2-aminomethylazetidine)platinum(IV) [Compound 19],GIR (growth inhibitory ratio),Colon 26 carcinoma [1]; 40 mg/kg i.p. single,60%
same,GIR (growth inhibitory ratio),Colon 26 carcinoma [1]; 60 mg/kg i.p. single,77%
same,GIR (growth inhibitory ratio),Colon 26 carcinoma [1]; 80 mg/kg i.p. single,85%
same,GIR (growth inhibitory ratio),Colon 26 carcinoma [1]; 120 mg/kg i.p. single,92%
same,GIR (growth inhibitory ratio),Colon 26 carcinoma [1]; 160 mg/kg i.p. single,95%
"[NH2][Pt]([NH2])([Cl])[Cl] [CDDP, cisplatin, reference compound]",GIR (growth inhibitory ratio),Colon 26 carcinoma [1]; 4 mg/kg i.p. single,26%
same,GIR (growth inhibitory ratio),Colon 26 carcinoma [1]; 6 mg/kg i.p. single,51%
same,GIR (growth inhibitory ratio),Colon 26 carcinoma [1]; 8 mg/kg i.p. single,62%
same,GIR (growth inhibitory ratio),Colon 26 carcinoma [1]; 12 mg/kg i.p. single,79%
same,GIR (growth inhibitory ratio),Colon 26 carcinoma [1]; 16 mg/kg i.p. single,died
same,Percent binding to plasma proteins,plasma proteins; 1 hr incubation,16%
same,Percent binding to plasma proteins,plasma proteins; 4 hr incubation,62%
same,Percent binding to plasma proteins,plasma proteins; 8 hr incubation,86%
same,Percent binding to plasma proteins,plasma proteins; 24 hr incubation,93%
same,"BUN (urea nitrogen in blood, mean ± SD)",[3]; [8],23.3 ± 4.7 mg/dL
same,Body weight (mean ± SD),[3]; [8],24.6 ± 1.1 g
same,"BUN (urea nitrogen in blood, mean ± SD)",[3]; [9],38.5 ± 28.9 mg/dL
same,Body weight (mean ± SD),[3]; [9],22.55 ± 1.1 g
same,"BUN (urea nitrogen in blood, mean ± SD)",[3]; [10],65.2 ± 31.5 mg/dL
same,Body weight (mean ± SD),[3]; [10],19.0 ± 1.5 g
same,antitumor activity (in words),"[4]; Rosenberg et al, Nature 222, 385 (1969)",has antitumor activity
same,nephrotoxicity (in words),[4]; known platinum complexes including CDDP,very serious nephrotoxicity
"NC[C@H]1CCCN1.O=C([O-])C1(C(=O)[O-])CCC1.[Pt+2] [Compound 1, 1,1-cyclobutanedicarboxylate(2-aminomethylpyrrolidine)platinum(II)]",GIR (growth inhibitory ratio),Colon 26 carcinoma [1]; 40 mg/kg i.p. single,79%
same,GIR (growth inhibitory ratio),Colon 26 carcinoma [1]; 60 mg/kg i.p. single,87%
same,GIR (growth inhibitory ratio),Colon 26 carcinoma [1]; 80 mg/kg i.p. single,98%
same,GIR (growth inhibitory ratio),Colon 26 carcinoma [1]; 120 mg/kg i.p. single,97%
same,GIR (growth inhibitory ratio),Colon 26 carcinoma [1]; 160 mg/kg i.p. single,died
same,CIR,Colon 26 carcinoma [2],98%
